Data taken from US9540620B2, “Methods and compositions for modulating G-alpha-Q signaling” (The University of North Carolina at Chapel Hill, priority 2012, dated 2017).
“Also recorded” adds a separate entry of the source. One block for each molecule: values may come before it. Ends that are not written are not given here. Peptide text beside a SMILES is read from it. * marks the point of attachment. X1 = CN(C)c1ccc2c(-c3ccc(C(=O)*)cc3C(=O)[O-])c3ccc(=[N+](C)C)cc-3oc2c1

What was measured:
activated GαI = assay: Fluorescence polarization binding of TAMRA-labeled peptide to activated Gαi
activated Gαo = activated Gαo (Homo sapiens, UniProt P09471); assay: Fluorescence polarization binding of TAMRA-labeled peptide to activated Gαo
Chain of activated Gαo (P09471 whole entry): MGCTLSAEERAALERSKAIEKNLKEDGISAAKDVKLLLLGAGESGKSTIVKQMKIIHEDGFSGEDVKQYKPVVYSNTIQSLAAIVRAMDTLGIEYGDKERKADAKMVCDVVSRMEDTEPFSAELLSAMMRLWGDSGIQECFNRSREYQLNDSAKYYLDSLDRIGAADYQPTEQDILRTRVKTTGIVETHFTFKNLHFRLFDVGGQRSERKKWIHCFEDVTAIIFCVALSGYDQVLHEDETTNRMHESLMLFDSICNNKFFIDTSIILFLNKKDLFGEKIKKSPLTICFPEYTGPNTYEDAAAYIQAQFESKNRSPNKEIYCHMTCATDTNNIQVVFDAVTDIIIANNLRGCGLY

[1] = biological target: T1, Gαq activated with aluminum fluoride (Homo sapiens, UniProt P50148); assay: Fluorescence polarization binding of TAMRA-labeled PLC-β3 HTH peptides to Gαq; details: Gαq-GDP without added aluminum fluoride
T1 sequence (P50148 1-359): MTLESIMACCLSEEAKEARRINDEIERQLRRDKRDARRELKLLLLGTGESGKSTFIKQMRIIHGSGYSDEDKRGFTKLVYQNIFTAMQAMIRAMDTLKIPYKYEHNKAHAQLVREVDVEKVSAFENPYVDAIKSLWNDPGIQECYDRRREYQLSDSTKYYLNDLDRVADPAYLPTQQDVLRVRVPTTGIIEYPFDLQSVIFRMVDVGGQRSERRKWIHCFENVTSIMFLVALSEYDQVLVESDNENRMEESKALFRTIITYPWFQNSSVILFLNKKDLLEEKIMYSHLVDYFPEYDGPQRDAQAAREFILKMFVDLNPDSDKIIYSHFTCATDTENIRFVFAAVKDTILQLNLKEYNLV
Description: (§1) FIGS. 6A-C. Quantification of Gαq binding to peptides corresponding to the HTH of PLβ3. […] The structures of PLCβ3 (3 OHM) and p63RhoGEF (2RGN) bound to Gαq were superimposed and a single Gαq is shown. Immediately below is shown the sequence alignment of PLCβ3 (SEQ ID NO:37) and p63RhoGEF (SEQ ID NO:41) encompassing the helix-turn-helix. Underlined residues are labeled in the structure. […] (FIG. 6C) Increasing concentrations of unlabeled PLC-β3 were added to a solution of labeled 25-mer (400 nM) and Gαq (4 μM). KD and IC50 values were derived from three independent experiments.

activated Gαs = activated Gαs (Homo sapiens, UniProt P63092); assay: Fluorescence polarization binding of TAMRA-labeled peptide to activated Gαs
Chain of activated Gαs (P63092 whole entry): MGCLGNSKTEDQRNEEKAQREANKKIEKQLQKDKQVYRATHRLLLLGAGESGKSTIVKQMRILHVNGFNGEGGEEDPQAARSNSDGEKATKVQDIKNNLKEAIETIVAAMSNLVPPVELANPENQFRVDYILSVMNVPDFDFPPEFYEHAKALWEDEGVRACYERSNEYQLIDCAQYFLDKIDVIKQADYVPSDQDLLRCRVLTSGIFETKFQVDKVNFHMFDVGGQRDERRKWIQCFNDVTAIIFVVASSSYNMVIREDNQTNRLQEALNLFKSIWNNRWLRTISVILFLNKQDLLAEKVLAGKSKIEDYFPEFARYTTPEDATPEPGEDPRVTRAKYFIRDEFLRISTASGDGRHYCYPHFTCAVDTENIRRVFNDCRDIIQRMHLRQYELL

[2] = system: G-alpha-q mediated activation of PLC-beta; assay: 5HT2A/DOI-stimulated [3H]inositol phosphate accumulation in transiently transfected HEK293 cells; type: cell-based; details: DOI 1-2 microMolar (FIG. 10)
Description: FIG. 10. […] HEK293 cells transfected with 100 ng of 5HT2A and stimulated with 1-2 microMolar of DOI (Synonym: (±)-DOI, (±)-1-(2,5-Dimethoxy-4-iodophenyl)-2-aminopropane hydrochloride, (±)-2,5-Dimethoxy-4-iodoamphetamine hydrochloride) were assayed for [^3H]inositol phosphate accumulation. The control for no DOI stimulation for the CFP-HTH-YFP sample is shown as dashed line (A) and triangle (B). Where indicated HEK293 cells were transfected with varying amounts of PLC constructs.
This experiment is a proof of principle to inhibit G-alpha-q with adeno-associated virus (AAV) to treat uveal melanoma patients. Future experiments will use a retrovirus containing the 27 residue helix-turn-helix in primary uveal melanoma cells to induce apoptosis and inhibit the progression of the uveal melanoma.
The 27mer construct used is between two fluorescent proteins YFP and CFP yielding: YFP-HTH(27mer)-CFP. The 27mer sequence is
A CaaX box was attached to the YFP-HTH(27mer)-CFP to keep this molecule at the membrane. The CaaX box sequence is at the very C-terminal end and are the residues CAIL (SEQ ID NO:36).

Gαq/i = assay: Fluorescence polarization assay in 384 well plates, competition with TAMRA-27-mer; type: binding; details: 30 μM, 200 nM TAMRA-27-mer, 1.5 μM Gαq/i
Description: FIG. 4. Fluorescence polarization assay in 384 well plates. Each well contains 200 nM TAMRA-27-mer and 1.5 μM Gαq/i. Z′-factor determined using 48 wells+/−aluminum fluoride (AlF4). Unlabeled 27-mer (30 μM) added to an additional 48 wells. Coefficient of variance range between 1 and 4 percent.
To begin to develop a high-throughput format suitable for screening large libraries of compounds, the original fluorescence polarization assay was formatted to use microtiter plates (FIG. 4). The initial reconfiguration to use 384-well plates is highly promising, providing a high dynamic range as defined by the difference in fluorescence polarization of the TAMRA-27-mer in the presence of Gαq-GDP either alone or activated with aluminum fluoride. The high dynamic range combined with low variance produced a Z′-factor of approximately 0.8. An assay with a Z′-factor above 0.5 is generally required for useful high-throughput screening^19; a Z′-factor above 0.8 is generally considered excellent. Moreover, the addition of 30 μM of unlabeled 27-mer competed with the TAMRA-27-mer for binding to Gαq leading to an approximately 50 percent decrease in fluorescence polarization.

Gαq = biological target: T2, Gαq (Homo sapiens, UniProt P50148); assay: Fluorescence polarization competition: unlabeled PLC-β3 against TAMRA-labeled peptide for Gαq; type: binding
T2 sequence (P50148 1-359): T1 sequence (P50148 1-359)
Description: FIGS. 3A and 3B. TAMRA-27-mer and PLC-β3 directly compete for Gαq. (FIG. 3A) Increasing concentrations of PLC-β3 were added to a solution of TAMRA-27-mer (400 nM) and Gαq (800 nM). The IC50 value is derived from three independent experiments. (FIG. 3B) Phospholipase activity of PLC-β3 activated by Gαq using lipid vesicles and inhibited by increasing concentrations of TAMRA-27-mer.
as §1
Fluorescence polarization will be used to monitor disruption of complex formation between the 27-mer and active Gαq to identify compounds that directly compete with the complex. It is expected that the majority of these compounds will sit within the canonical effector-binding site of Gαq to prevent the binding of peptide—and by extension, prevent the binding of effectors. However, before using this assay format to identify inhibitors of complex formation it was necessary to insure that peptides corresponding to the HTH of PLC-β3 bound to Gαq. […] These experiments strongly support that peptides corresponding to the HTH of PLC-β3 directly bind to the effector pocket of Gαq and can be used as surrogates of effectors in assays of complex formation with active Gαq.
The most promising peptide consisted of 25 residues (TAMRA-25-mer) spanning the entire HTH and bound to G-alpha-q with appreciable affinity (Kd˜6 microMolar).

Molecule: CC[C@H](C)[C@H](NC(=O)[C@H](CC(C)C)NC(=O)[C@H](C)NC(=O)[C@H](CCC(=O)O)NC(=O)[C@H](C)NC(=O)[C@H](Cc1ccc(O)cc1)NC(=O)[C@H](CC(=O)O)NC(=O)[C@H](CCC(N)=O)NC(=O)[C@H](Cc1c[nH]cn1)NC(=O)c1ccc(-c2c3ccc(=[N+](C)C)cc-3oc3cc(N(C)C)ccc23)c(C(=O)[O-])c1)C(=O)N[C@@H](CC(N)=O)C(=O)N1CCC[C@H]1C(=O)N[C@H](C(=O)N[C@@H](CCCCN)C(=O)N[C@@H](Cc1c[nH]cn1)C(=O)N[C@H](C(=O)N[C@@H](CO)C(=O)N[C@@H](CC(C)C)C(=O)N[C@@H](CCSC)C(=O)N[C@@H](CC(=O)O)C(=O)N[C@@H](CCC(N)=O)C(=O)N[C@@H](CCCNC(=N)N)C(=O)N[C@@H](C)C(=O)N[C@@H](CCCNC(=N)N)C(=O)N[C@@H](CCC(N)=O)C(=O)N[C@@H](CC(C)C)C(=O)O)C(C)C)[C@@H](C)CC [TAMRA-25-mer] (X1-HQDYAEALINPIKHVSLMDQRARQL-OH; C-terminus assumed)
binding to activated Gαi (activated GαI): failed to bind; also recorded: neither activated Gαs, GαI, nor Gαo bound the peptide
binding to activated Gαo (activated Gαo): failed to bind; also recorded: neither activated Gαs, GαI, nor Gαo bound the peptide
complex formation with inactive Gαq-GDP / dependence on aluminum fluoride activation [1]: dependent on the activation of G-alpha-q with aluminum fluoride; also recorded: dependent on the activation of Gαq with aluminum fluoride
binding to activated Gαs (activated Gαs): failed to bind; also recorded: neither activated Gαs, GαI, nor Gαo bound the peptide

Molecule: CFP-27mer(I860A)-YFP: 27mer HQDYAEALANPIKHVSLMDQRARQLAA between fluorescent proteins YFP and CFP, C-terminal CaaX box CAIL, expressed by transient transfection (HQDYAEALANPIKHVSLMDQRARQLAACAIL; also: fused between fluorescent proteins YFP and CFP)
inhibition of G-alpha-q signaling after transient transfection [2]: inhibits G-alpha-q mediated activation of PLC-beta
inhibition of G-alpha-q signaling after transient transfection ([2]; listed as 27 residue helix-turn-helix peptide): inhibited G-alpha-q signaling

Molecule: HQDYAEALANPIKHVSL-Nle-DQRARQLAA [unlabeled 27-mer]
decrease in fluorescence polarization (Gαq/i): approximately 50%

competition with the 27-mer for binding to Gαq (Gαq; TAMRA-27-mer 400 nM, Gαq 800 nM): could not compete
effect on TAMRA-25-mer binding to Gαq (Gαq; at concentrations as high as 35 μM): no effect
B1: PLC-β3(L859E): mutant full-length PLC-β3 with single substitution L859E in its HTH that does not bind Gαq (protein)
chain: AGAQPGVHALQLEPPTVVETLRRGSKFIKWDEETSSRNLVTLRVDPNGFFLYWTGPNMEVDTLDISSIRDTRTGRYARLPKDPKIREVLGFGGPDARLEEKLMTVVSGPDPVNTVFLNFMAVQDDTAKVWSEELFKLAMNILAQNASRNTFLRKAYTKLKLQVNQDGRIPVKNILKMFSADKKRVETALESCGLKFNRSESIRPDEFSLEIFERFLNKLCLRPDIDKILLEIGAKGKPYLTLEQLMDFINQKQRDPRLNEVLYPPLRPSQARLLIEKYEPNQQFLERDQMSMEGFSRYLGGEENGILPLEALDLSTDMTQPLSAYFINSSHNTYLTAGQLAGTSSVEMYRQALLWGCRCVELDVWKGRPPEEEPFITHGFTMTTEVPLRDVLEAIAETAFKTSPYPVILSFENHVDSAKQQAKMAEYCRSIFGDALLIEPLDKYPLAPGVPLPSPQDLMGRILVKNKKRHRPSAGGPDSAGRKRPLEQSNSALSESSAATEPSSPQLGSPSSDSCPGLSNGEEVGLEKPSLEPQKSLGDEGLNRGPYVLGPADREDEEEDEEEEEQTDPKKPTTDEGTASSEVNATEEMSTLVNYIEPVKFKSFEAARKRNKCFEMSSFVETKAMEQLTKSPMEFVEYNKQQLSRIYPKGTRVDSSNYMPQLFWNVGCQLVALNFQTLDVAMQLNAGVFEYNGRSGYLLKPEFMRRPDKSFDPFTEVIVDGIVANALRVKVISGQFLSDRKVGIYVEVDMFGLPVDTRRKYRTRTSQGNSFNPVWDEEPFDFPKVVLPTLASLRIAAFEEGGKFVGHRILPVSAIRSGYHYVCLRNEANQPLCLPALLIYTEASDYIPDDHQDYAEAEINPIKHVSLMDQRARQLAALIGESEAQAGQETCQDTQSQQLGSQPSSNPTPSPLDASPRRPPGPTTSPASTSLSSPGQRDDLIASILSEVAPTPLDELRGHKALVKLRSRQERDLRELRKKHQRKAVTLTRRLLDGLAQAQAEGRCRLRPGALGGAADVEDTKEGEDEAKRYQEFQNRQVQSLLELREAQVDAEAQRRLEHLRQALQRLREVVLDANTTQFKRLKEMNEREKKELQKILDRKRHNSISEAKMRDKHKKEAELTEINRRHITESVNSIRRLEEAQKQRHDRLVAGQQQVLQQLAEEEPKLLAQLAQECQEQRARLPQEIRRSLLGEMPEGLGDGPLVACASNGHAPGSSGHLSGADSESQEENTQL
